In patent US20010012854A1, “MULTICATALYTIC PROTEASE INHIBITORS FOR USE AS ANTI-TUMOR AGENTS” (priority 1997, published 2001):
pIC50: −log10 of the molar value.

Columns and labels:
[1] = test system: Lewis lung (murine) lung carcinoma; experiment: Calcein-AM viability assay, Lewis Lung; format: cell-based; settings: Mus musculus
Protocol: (§1) Cells were initially seeded in 96-well plates at varying density, then assayed using the Calcein-AM viability assay after 24 hours to determine the optimal final density for each cell type. Cells were then seeded in 96-well plates at this density in 100 μL of the proper cell media as follows:
(§2) Serial dilutions of the compounds were made so that concentrations were twice the desired concentration to be evaluated. When 100 μL of the dilution was then added to the cells plated in 100 μL of media, a final concentration of 0, 11.7, 46.9, 187.5, 375 and 750 nM was obtained. Compounds were added to the plates three to four hours after seeding the cells, then the plates were incubated at 37° C. for the desired time point (generally one, two, or three day incubations).
(§3) Calcein-AM viability assays were conducted at the desired time points as follows. Media were aspirated using a manifold and metal plate to leave approximately 50 μL/well. The wells were then washed three times with 200 μL DPBS (Gibco), aspirating each time with the manifold to leave 50 μL/well. A 8 μM solution of Calcein-AM (Molecular Probes) in DPBS was prepared and 150 μL was added to each well. The plates were then incubated at 37° C. for 30 minutes. […] After the final aspiration, fluorescence was measured using a Cytofluor 2300 fluorescence plate reader. […]

[2] = test system: SKMEL-5 melanoma; experiment: Calcein-AM viability assay, SKMEL-5; format: cell-based; settings: Homo sapiens, SK-MEL-5
Protocol: as §1, §2, §3

[3] = test system: Lewis Lung carcinoma xenografts; experiment: In vivo growth of Lewis Lung carcinoma xenografts in athymic nude mice; design: species or system murine; settings: 3 mg/kg, s.c., QD, 5 days a week, 12 days
Protocol: Female athymic nude mice were injected s.c. with 1×10^6 Lewis Lung carcinoma cells into the right rear flank. Upon tumors achieving 150 to 200 mm^3 in volume, mice were randomized into groups of ten animals each and dosing commenced with Compound I (2 mg/kg, s.c., QD, 5 days a week), Compound J (3 mg/kg, s.c., QD, 5 days a week), or vehicle alone (30% Solutol) for a total of 12 days. Tumor measurements (volume) were determined with vernier calipers in two dimensions every two to three days. Statistical analyses of drug-associated anti-tumor efficacy relative to vehicle-treated controls were conducted using the Mann-Whitney Rank sum test.

[4] = test system: OVCAR-3 ovarian carcinoma; experiment: Calcein-AM viability assay, OVCAR-3; format: cell-based; settings: Homo sapiens
Protocol: as §1, §2, §3

[5] = test system: DU145 prostatic carcinoma; experiment: Calcein-AM viability assay, DU-145; format: cell-based; settings: Homo sapiens
Protocol: as §1, §2, §3

[6] = test system: PANC-1 pancreatic carcinoma; experiment: Calcein-AM viability assay, PANC-1; format: cell-based; settings: Homo sapiens
Protocol: as §1, §2, §3

[7] = test system: MCF-7 breast carcinoma; experiment: Calcein-AM viability assay, MCF-7; format: cell-based; settings: Homo sapiens, MCF7
Protocol: as §1, §2, §3

[8] = test system: AT-2 (rat) prostatic carcinoma; experiment: Calcein-AM viability assay, AT-2; format: cell-based
Protocol: as §1, §2, §3

[9] = target: MCP chymotrypsin-like activity (Homo sapiens, UniProt P28074); experiment: Inhibition of MCP chymotrypsin-like activity; format: biochemical
Source text: (§4) The rank-order potency for Jurkat cell killing precisely matched the order for MCP inhibition (Table 2, below).
Inhibition of the chymotrypsin-like activity of MCP by the disclosed MCP inhibitors has been reported, but these MCP inhibitors produced relatively little inhibition on the MCP trypsin-like activity and cathepsin B, a vacuolar cysteine protease (Iqbal, M., et al. J. Med Chem. 38: 2276-2277, 1995; Iqbal, M., et al. Bioorg. Med. Chem. Lett. 6: 287-290, 1996; and Harding, C. V., et al. J. Immuno. 155: 1767-1775, 1995). Furthermore, the order of potency for inhibition of the chymotrypsin-like activity was reported to be Compound A>Compound B>Compound C by using both isolated MCP and intact murine B cells (Iqbal, M., et al. J. Med Chem. 38: 2276-2277, 1995; Iqbal, M., et al. Bioorg. Med. Chem. Lett. 6: 287-290, 1996; and Harding, C. V., et al. J. Immuno. 155: 1767-1775, 1995).

[10] = test system: murine melanoma cell line, B16-F0; experiment: In vivo B16-F0 melanoma tumor growth in C57BL mice; settings: 10 mg/kg/day, ip
Protocol: a. Materials: MCP inhibitors used for in vivo studies (Compounds D and E) were each formulated in 25% Solutol.
b. Cell line: The murine melanoma cell line, B16-F0, was grown at 37° C. in a humidified incubator, with a 95% air/5% CO2 atmosphere, in Dulbecco's modified Eagle's medium with 4.5 g/l glucose (Cellgro/Mediatech, Washington, D.C.) containing 10% fetal bovine serum (Hyclone Labs, Logan, Utah), 2 mM glutamine (GibcoBRL, Long Island, N.Y.), penicillin (100 I.U./mL) (GibcoBRL), and streptomycin (100 μg/mL) (GibcoBRL). The cells were determined to be free of mycoplasma and rodent viruses (MAP testing). Exponentially growing cells were harvested using 5 mL of warm trypsin/EDTA (0.05%, 0.5 mM)((GibcoBRL). The total volume was brought up to 10 mL with Complete Medium to neutralize trypsin and cells were counted with a hemocytometer. The cells were then collected by brief centrifugation and the cell pellet was resuspended in Phosphate Buffered Saline (GibcoBRL) to achieve the final concentration of 1×10^7 live cells/ml.
c. Animals: Female C57BL mice (20-25 g) obtained from Harlan Sprague Dawley, Indianapolis, Ind. were maintained five mice/cage and given a commercial diet and water ad libitum. […]
e. Tumor measurements: Tumors were measured using a vernier caliper every 2 to 3 days. Tumor volume was calculated using the formula: […]

[11] = test system: Jurkat Human T Cell Leukemia Line; experiment: Jurkat cell viability assay (XTT reduction); format: cell-based; settings: Jurkat cells, 24 hours, viability by XTT reduction, read-out: Toxicity (IC50)
Protocol: f. Cell viability assay. Jurkat cells were treated with MCP inhibitors or vehicle for 30 min. at 37° C. Next, ionomycin (1 μM) and the phorbol ester PMA (10 ng/ml) were added, together with 0.2% ethanol. After 24 h, cell viability was assessed by reduction of XTT (Sigma, X4251). To each well, 50 μl of XTT (1 mg/ml) and 25 μl PMS (Sigma 9625, 5 mM) were added. After 3 h at 37° C., the OD of each well was read at 450 nm/690 nm by a plate reader.
as §4

pIC50 ([1]; 24 h)	pIC50 ([1]; 72 h)	pIC50 ([2]; SKMEL-5, 24 h)	pIC50 ([2]; SKMEL-5, 72 h)	pIC50 ([4]; OVCAR-3, 24 h)	pIC50 ([4]; OVCAR-3, 72 h)	pIC50 ([5]; DU-145, 24 h)	pIC50 ([5]; DU-145, 72 h)	pIC50 ([6]; PANC-1, 24 h)	pIC50 ([6]; PANC-1, 72 h)	pIC50 ([7]; MCF-7, 24 h)	pIC50 ([7]; MCF-7, 72 h)	pIC50 ([8]; AT-2, 24 h)	pIC50 ([8]; AT-2, 72 h)	pIC50 [9]	Structure (SMILES)	Lung carcinoma tumor growth (tumor volume) [3]	Melanoma tumor growth (tumor volume) [10]	pIC50 [11]
6.39	6.30	6.37	7.09	< 6.00	7.54	6.41	6.78	< 6.00	6.73	< 6.00	6.54	< 6.00	< 6.00	–	CC(C)C[C@@H](NC(=O)[C@H](CCCN/C(N)=N/[N+](=O)[O-])NC(=O)C(CCCCCCCCN1C(=O)c2ccccc2C1=O)C1CCCC1)B1O[C@H]2CC3CC(C3(C)C)C2(C)O1 (stereo partly shown) [Compound J]	inhibit lung carcinoma tumor growth	–	–
–	–	–	–	–	–	–	–	–	–	–	–	–	–	8.30	CC(C)C[C@H](NC(=O)[C@H](CCCNC(N)=N[N+](=O)[O-])NC(=O)C(CCCCCCCCC#N)C1CCCC1)B(O)O (stereo partly shown) [D]	–	inhibit melanoma tumor growth	6.22
–	–	–	–	–	–	–	–	–	–	–	–	–	–	–	CC(C)C[C@H](NC(=O)[C@H](CCCN/C(N)=N/[N+](=O)[O-])NC(=O)C(CCCCCCCCN1C(=O)c2ccccc2C1=O)C1CCCC1)B(O)O (stereo partly shown) [E]	–	inhibit melanoma tumor growth	–
